Laboratory results from patent publication US20210138080A1, “CONJUGATES” (GLYKOS BIOMEDICAL OY, priority 2018, published 2021).
“Also recorded” adds a separate entry of the source. Read-outs that look alike come from different tables or passages of the source.

Tests used:
[1] = test system: NCI-N87 cancer cell line tumors; test: in vivo trial, cancer cell xenografts on chicken egg chorioallantoic membrane (CAM): tumor weight; settings: for Mean tumor size: five doses E10-E17, 1.5 mg/kg pembrolizumab, 1.8 mg/kg 33DFTG, weighed E18, PBS control 30.6
Description: (§1) The study was performed by Inovotion SAS (La Tronche, France). Fertilized chicken eggs were incubated at 37.5° C. with 50% relative humidity for 9 days (E9), when the chorioallantoic membrane (CAM) was dropped down by drilling a small hole through the eggshell into the air sac, and a 1 cm^2 window was cut in the eggshell above the CAM. The NCI-N87 cell line was cultivated in RPMI-1640 medium supplemented with 10% FBS and 1% penicillin/streptomycin. On day E9, cells were detached by trypsin, washed with complete medium and suspended in graft medium. An inoculum of 2 million cells was added onto the CAM of each egg. […] Living grafted eggs were randomized into groups and were then treated on day E10, E11.5, E13, E14.5 and E17 (five doses) by dropping 100 μl of vehicle (PBS) and compounds (alone or in combination) onto the tumor. On day 18 (E18) the upper portion of the CAM was removed, washed in PBS and then directly transferred in PFA (fixation for 48 h). The tumors were then carefully cut away from normal CAM tissue and weighed. Eggs were checked at each treatment time, or at least every two days, for viability during the study. At the end of the study, the number of dead embryos was counted and combined with the observation of eventual visible macroscopic abnormalities (observation done during the sample collection) to evaluate the toxicity.

[2] = test system: egg embryos; test: in vivo CAM trial: embryo viability (toxicity)
Description: as §1

[3] = biological target: T1, Galectin-3 (Homo sapiens, UniProt P17931); settings: SKOV-3 cells, 2 μM 33DFTG for 3 days; Galectin-3 10 μg/ml; control treatment 1940
T1 sequence (P17931 whole entry): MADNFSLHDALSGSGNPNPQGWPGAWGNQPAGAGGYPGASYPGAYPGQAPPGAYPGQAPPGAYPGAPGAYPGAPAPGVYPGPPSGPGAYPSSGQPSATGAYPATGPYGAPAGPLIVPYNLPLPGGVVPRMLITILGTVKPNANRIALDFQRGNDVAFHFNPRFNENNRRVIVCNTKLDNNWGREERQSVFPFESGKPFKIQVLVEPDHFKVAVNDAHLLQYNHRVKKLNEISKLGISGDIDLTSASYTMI
Description: (§2) After the incubation, cells were stained with Alexa Fluor 488-conjugated human recombinant Galectin-1, and Alexa Fluor 488-conjugated human recombinant Galectin-3 (both from Abcam, Cambridge, United Kingdom; and both at 10 μg/ml) for 45 minutes at +4° C. Cells were washed and stored on ice in the dark until analysed by FACSAriaII flow cytometer.

[4] = biological target: T1, Galectin-3; settings: HSC-2 cells, 2 μM 33DFTG for 2 days; control treatment 1247
Description: as §2
(§3) In parallel, untreated cells were cultured in normal cell culture medium. For flow cytometry analysis, cells were detached with trypsin, washed, and stained with AlexaFluor488-conjugated Galectin-1 and Galectin-3 proteins as above. FACS was performed as above.

[5] = biological target: T2, Galectin-1 (Homo sapiens, UniProt P09382); test: Alexa Fluor 488-Galectin-1 binding to HSC-2 cells by FACS; format: cell-based
T2 construct: purchased Abcam, Cambridge, United Kingdom
T2 sequence (P09382 whole entry): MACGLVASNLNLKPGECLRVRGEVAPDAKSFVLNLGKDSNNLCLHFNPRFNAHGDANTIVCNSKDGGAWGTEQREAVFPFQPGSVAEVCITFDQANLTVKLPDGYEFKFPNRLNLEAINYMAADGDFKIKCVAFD
Description: as §2, §3

[6] = biological target: T2, Galectin-1; test: Alexa Fluor 488-Galectin-1 binding to SKOV-3 cells by FACS; format: cell-based
Description: as §2

Row | Molecule | Mean tumor size [1] [mg] | tumor size / therapeutic efficacy compared to control group (in words) ([1]; repeated dose) | % alive ([2]; egg embryos at end of study, PBS control 81) [%] | % alive ([2]; chicken, in vivo, 8 days) [%] | Mean fluorescence intensity, Galectin-3 [3] | Mean fluorescence intensity, Galectin-3 [4] | binding of Galectin-1 to the cells (in words) ([5]; 2 μM 33DFTG) | Mean fluorescence intensity, Galectin-1 ([5]; 2 μM 33DFTG for 2 days, control treatment 521) | binding of Galectin-1 to the cells (in words) ([6]; 2 μM 33DFTG) | Mean fluorescence intensity, Galectin-1 ([6]; 2 μM 33DFTG for 3 days, Galectin-1 10 μg/ml, control treatment 439)
1 | Pembrolizumab: pembrolizumab (Keytruda, Merck) | 33.5 | neither pembrolizumab alone or 33DFTG alone showed significant difference | 73 | – | – | – | – | – | – | –
2 | OC[C@H]1O[C@@H](S[C@@H]2O[C@H](CO)[C@H](O)[C@H](n3cc(-c4cccc(F)c4)nn3)[C@H]2O)[C@H](O)[C@@H](n2cc(-c3cccc(F)c3)nn2)[C@H]1O [33DFTG, 3,3′-dideoxy-3,3′-bis-[4-(3-fluorophenyl)-1H-1,2,3-triazol-1-yl]-1,1′-sulfanediyl-di-β-D-galactopyranoside] | 35.8 | – | – | 64 | 165 | 129 | effective inhibition; also recorded: clearly decreased | 226 | effective inhibition; also recorded: clearly decreased | 186
